Reference: patent publication US9101620B2, “Polymorph of 3-(substituteddihydroisoindolinone-2-yl)-2,6-dioxopiperidine, and pharmaceutical compositions thereof” (Nanjing Cavendish Bio-Engineering Technology Co., Ltd., priority 2009, dated 2015)
“Also recorded” adds a separate entry of the source. Values belong to the compound of their own block, whether it stands above or below them.

Tests used:
Format in all cases: physicochemical
[1] = Observation test of long-term sample storage (crystal transformation); settings: long-term sample storage in high humidity; DSC scanning
[2] = Solubility test according to Chinese Pharmacopoeia Edition 2005; settings: for Dissolving status: within 30 minutes
Experimental: Test was performed according to the Examples of Chinese Pharmacopoeia Edition 2005. Method: a definite quantity of the Polymorph I of 3-(4-amino-1-oxo-1,3-dihydro-2H-isoindole-2-yl)-piperidine-2,6-dione (hemihydrate) measured accurately was added into a certain quantity of solvent slowly, while the mixture was shaken strongly for 30 seconds every 5 minutes and the dissolving status within 30 minutes was observed. Results were listed in Tab. 1.
(§1) Test was performed according to the Examples of Chinese Pharmacopoeia Edition 2005. Method: a definite quantity of the (acetonitrile) solvated Polymorph II of 3-(4-amino-1-oxo-1,3-dihydro-2H-isoindole-2-yl)-piperidine-2,6-dione measured accurately was added into a certain quantity of solvent slowly, while the mixture was shaken strongly for 30 seconds every 5 minutes and the dissolving status within 30 minutes was observed. Results were listed in Tab. 61.
as §1, with “(acetone)” for “(acetonitrile)”, “polymorph III” for “Polymorph II”, “slowly” for “slowly,”, “11.” for “61.”

[3] = High temperature test (60° C.); settings: for Appearance / Content / Related substance: 60° C.; for Variation of appearance and content (in words): high temperature (60° C.) test, summary
Excerpt: (§2) The conditions and methods of related substance test involved in this invention were in accordance with HPLC (Appendix VD of Chinese Pharmacopoeia Edition 2005).
(§3) Chromatographic conditions and system applicability: octadecylsilane bonded silica as the filler; 0.01 mol/L of potassium dihydrogen phosphate (adjusted to pH 3.5 by phosphoric acid)-methanol-acetonitrile (80:15:5) as the mobile phase; detection wavelength was 240 nm; the number of theoretical plates should be not less than 2000, calculated according to the peak of 3-(4-amino-1-oxo-1,3-dihydro-2H-isoindole-2-yl)-piperidine-2,6-dione. The resolution of the peak of 3-(4-amino-1-oxo-1,3-dihydro-2H-isoindole-2-yl)-piperidine-2,6-dione from the peaks of adjacent impurities should meet requirements.
The raw material of Polymorph I of 3-(4-amino-1-oxo-1,3-dihydro-2H-isoindole-2-yl)-piperidine-2,6-dione (hemihydrate) was put into a clean sealed glass bottle and then put in thermostatic drying chamber at 60° C. Sample was tested at the 5th and 10th day respectively and the results were contrasted with that of the Day 0. Results were listed in Tab. 3. After high temperature test of 60° C. for 10 days, the X-ray powder diffraction pattern was shown FIG. 7; DSC diagram was in FIG. 8.
(§4) The raw material of Polymorph II of 3-(4-amino-1-oxo-1,3-dihydro-2H-isoindole-2-yl)-piperidine-2,6-dione was put into a clean sealed glass bottle and then put in thermostatic drying chamber at 60° C. Sample was tested at the 5th and 10th day respectively and the results were contrasted with that of the Day 0. Results were listed in Tab. 8. After high temperature test of 60° C. for 10 days, the X-ray powder diffraction pattern was shown in FIG. 18; DSC diagram was in FIG. 19.
as §4, with “III” for “II”, “13.” for “8.”, “29;” for “18;”, “30.” for “19.”

[4] = Photostability test (strong illumination); settings: for Appearance / Content / Related substance: 4500±500 Lx; for Variation of appearance and content (in words): photostability (illumination) test, summary
Excerpt: as §2, §3
The Polymorph I of 3-(4-amino-1-oxo-1,3-dihydro-2H-isoindole-2-yl)-piperidine-2,6-dione (hemihydrate) was distributed homogeneously in open petri dish with the thickness of the raw material not more than 5 mm, and the distance was adjusted to make illumination intensity at 4500±500 Lx. Sample was tested at the 5th and 10th day respectively and the results were contrasted with that of the Day 0. Results were listed in Tab. 2. After strong illumination for 10 days, the X-ray powder diffraction pattern was shown in FIG. 5; DSC diagram of the Polymorph I of 3-(4-amino-1-oxo-1,3-dihydro-2H-isoindole-2-yl)-piperidine-2,6-dione (hemihydrate) was in FIG. 6.
(§5) The Polymorph II of 3-(4-amino-1-oxo-1,3-dihydro-2H-isoindole-2-yl)-piperidine-2,6-dione was distributed homogeneously in open petri dish with the thickness of the raw material not more than 5 mm and the distance was adjusted to make illumination intensity at 4500±500 Lx. Sample was tested at the 5th and 10th day respectively and the results were contrasted with that of the Day 0. Results were listed in Tab. 7. After strong illumination for 10 days, the X-ray powder diffraction pattern was shown in FIG. 16; DSC diagram was in FIG. 17
as §5, with “III” for “II”, “12.” for “7.”, “27;” for “16;”, “28” for “17”

- Conclusion (solubility) ([2]; 0.1 mol/L HCl solution): sparingly soluble
- Dissolving status ([2]; 0.1 mol/L HCl solution): fully
- Conclusion (solubility) ([2]; 0.1 mol/L NaOH solution): slightly soluble
- Dissolving status ([2]; 0.1 mol/L NaOH solution): fully
- Conclusion (solubility) ([2]; DMF (N,N-dimethylformamide)): freely soluble
- Dissolving status ([2]; DMF): fully
- Conclusion (solubility) ([2]; DMSO (dimethylsulfoxide)): freely soluble
- Dissolving status ([2]; DMSO): fully
- Conclusion (solubility) ([2]; acetic acid): sparingly soluble
- Dissolving status ([2]; acetic acid): fully
- Conclusion (solubility) ([2]; acetone): slightly soluble
- Dissolving status ([2]; acetone): fully
- Conclusion (solubility) ([2]; acetonitrile): slightly soluble
- Dissolving status ([2]; acetonitrile): fully
- Conclusion (solubility) ([2]; ethanol): very slightly soluble
- Dissolving status ([2]; ethanol): fully
- Conclusion (solubility) ([2]; ethyl acetate): very slightly soluble
- Dissolving status ([2]; ethyl acetate): fully
- Conclusion (solubility) ([2]; methanol): very slightly soluble
- Dissolving status ([2]; methanol): fully
- Dissolving status ([2]; water): cannot fully
- Appearance ([3]; 0 days): Off-white powder
- Content ([3]; 0 days): 99.89%
- Related substance ([3]; 0 days): 0.09%
- Appearance ([3]; 5 days): Off-white powder
- Content ([3]; 5 days): 99.86%
- Related substance ([3]; 5 days): 0.09%
- Appearance ([3]; 10 days): Off-white powder
- Content ([3]; 10 days): 99.87%
- Related substance ([3]; 10 days): 0.10%
- Variation of appearance and content (in words) [3]: few significant variation
- Appearance ([4]; 0 days): off-white powder
- Content ([4]; 0 days): 99.89%
- Related substance ([4]; 0 days): 0.09%
- Appearance ([4]; 5 days): off-white powder
- Content ([4]; 5 days): 99.89%
- Related substance ([4]; 5 days): 0.09%
- Appearance ([4]; 10 days): off-white powder
- Content ([4]; 10 days): 99.88%
- Related substance ([4]; 10 days): 0.09%
- Variation of appearance and content (in words) [4]: few significant variation
SMILES: Nc1cccc2c1CN(C1CCC(=O)NC1=O)C2=O (single isomer, unassigned) [Polymorph II, 3-(4-amino-1-oxo-1,3-dihydro-2H-isoindole-2-yl)-piperidine-2,6-dione]
- Crystal transformation [1]: a small amount of Polymorph II had transformed to Polymorph I
- Conclusion (solubility) ([2]; water): nearly insoluble; also recorded: practically

- Conclusion (solubility) ([2]; 0.1 mol/L HCl solution): slightly
- Conclusion (solubility) ([2]; 0.1 mol/L HCl solution, listed as Polymorph 1): slightly soluble
- Dissolving status ([2]; 0.1 mol/L HCl solution): fully
- Conclusion (solubility) ([2]; 0.1 mol/L NaOH solution): sparingly
- Conclusion (solubility) ([2]; 0.1 mol/L NaOH solution, listed as Polymorph 1): sparingly soluble
- Dissolving status ([2]; 0.1 mol/L NaOH solution): fully
- Conclusion (solubility) ([2]; DMF (N,N-dimethylformamide), listed as Polymorph 1): soluble
- Dissolving status ([2]; DMF): fully
- Conclusion (solubility) ([2]; DMSO (dimethylsulfoxide)): freely
- Conclusion (solubility) ([2]; DMSO (dimethylsulfoxide), listed as Polymorph 1): freely soluble
- Dissolving status ([2]; DMSO): fully
- Conclusion (solubility) ([2]; acetic acid, listed as Polymorph 1): soluble
- Dissolving status ([2]; acetic acid): fully
- Conclusion (solubility) ([2]; acetone): slightly
- Conclusion (solubility) ([2]; acetone, listed as Polymorph 1): slightly soluble
- Dissolving status ([2]; acetone): fully
- Conclusion (solubility) ([2]; acetonitrile): slightly
- Conclusion (solubility) ([2]; acetonitrile, listed as Polymorph 1): slightly soluble
- Dissolving status ([2]; acetonitrile): fully
- Conclusion (solubility) ([2]; ethanol): very slightly
- Conclusion (solubility) ([2]; ethanol, listed as Polymorph 1): very slightly soluble
- Dissolving status ([2]; ethanol): fully
- Conclusion (solubility) ([2]; ethyl acetate): very slightly
- Conclusion (solubility) ([2]; ethyl acetate, listed as Polymorph 1): very slightly soluble
- Dissolving status ([2]; ethyl acetate): fully
- Conclusion (solubility) ([2]; methanol): slightly
- Conclusion (solubility) ([2]; methanol, listed as Polymorph 1): slightly soluble
- Dissolving status ([2]; methanol): fully
- Conclusion (solubility) ([2]; water): very slightly
- Conclusion (solubility) ([2]; water, listed as Polymorph 1): very slightly soluble
- Dissolving status ([2]; water): fully
- Appearance ([3]; 0 days): off-white powder
- Content ([3]; 0 days): 99.87%
- Related substance ([3]; 0 days): 0.05%
- Appearance ([3]; 5 days): off-white powder
- Content ([3]; 5 days): 99.86%
- Related substance ([3]; 5 days): 0.05%
- Appearance ([3]; 10 days): off-white powder
- Content ([3]; 10 days): 99.84%
- Related substance ([3]; 10 days): 0.06%
- Variation of appearance and content (in words) [3]: few significant variation
- Appearance ([4]; 0 days): off-white powder
- Content ([4]; 0 days): 99.87%
- Related substance ([4]; 0 days): 0.05%
- Appearance ([4]; 5 days): off-white powder
- Content ([4]; 5 days): 99.85%
- Related substance ([4]; 5 days): 0.05%
- Appearance ([4]; 10 days): off-white powder
- Content ([4]; 10 days): 99.86%
- Related substance ([4]; 10 days): 0.05%
- Variation of appearance and content (in words) [4]: few significant variation
SMILES: Nc1cccc2c1CN(C1CCC(=O)NC1=O)C2=O (single isomer, unassigned) [Polymorph I, 3-(4-amino-1-oxo-1,3-dihydro-2H-isoindole-2-yl)-piperidine-2,6-dione]
